This passage reports IC50 results from ChEMBL document CHEMBL1146209, “In-silico fragment-based identification of novel angiogenesis inhibitors” (Bioorg Med Chem Lett, 2007).

Molecules are shown by their SMILES. pIC50: −log10 of the molar value.

One may read the pIC50 as the IC50 on a negative log10 scale, so that one unit is a factor of ten. A lower pIC50 goes with a large IC50.

The test has as its system HUVEC. Description: Cytotoxicity against HUVEC after 24 hrs by MTT assay. The class given is cell-based. As to conditions: Homo sapiens. A general note: Tetrazolium dyes change colour on reduction, which living cells bring about.
In turn, `O=S(=O)(Nc1nccs1)c1ccc(Nc2ccnc3cc(Cl)ccc23)cc1` showed a pIC50 of 4.13. Regarding `Clc1ccc(Nc2ccnc3cc(Cl)ccc23)cc1`, the pIC50 is 4.06.

The molecule `O=C1c2ccccc2C(=O)C(CCCc2ccc(Oc3ccccc3)cc2)C1O` (centres undefined) showed a pIC50 of 4.12. The same measure for `O=C1c2ccccc2C(=O)c2c1oc1c2ccc2ccccc21`: 4.20; for `O=C(O)c1ccc(Nc2ccnc3cc(Cl)ccc23)cc1O`: 4.05; for `Oc1ccc(Nc2ccnc3cc(Cl)ccc23)cc1`: 4.09. The same measure for `COc1ccc(CC(N)C(=O)N(C)C2C(CO)OC(n3cnc4c(N(C)C)ncnc43)C2O)cc1` (centres undefined): 4.00; for `Clc1ccc2c(NC3CCC(NC4CCCCC4)CC3)ccnc2c1` (centres undefined): 4.89. In turn, `O=c1c(-c2ccc(O)cc2)coc2cc(O)cc(O)c12` [GENISTEIN] gave a negative-log IC50 (pIC50) of 4.06.
